Measurements from patent US9302999B2, “Substituted triazoles as herbicides” (E. I. DU PONT DE NEMOURS AND COMPANY, priority 2012, dated 2016).

Assays:
[1] = system: canarygrass (Phalaris minor); assay: Test D pre-/postemergence: canarygrass; format: in vivo
Summary of the method: (§1)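 Visual control ratings (0–100) after 14–21 days, controlled environment. Preemergence on silt loam; postemergence on 2–18 cm plants.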

[2] = system: chickweed (common chickweed, Stellaria media); assay: Test D pre-/postemergence: chickweed; format: in vivo
Summary of the method: as §1

[3] = system: bromegrass, downy (downy bromegrass, Bromus tectorum); assay: Test D pre-/postemergence: bromegrass, downy; format: in vivo
Summary of the method: as §1

[4] = system: radish, wild (wild radish, Raphanus raphanistrum); assay: Test D pre-/postemergence: radish, wild; format: in vivo
Summary of the method: as §1

[5] = system: wheat, winter (winter wheat, Triticum aestivum); assay: Test D pre-/postemergence: wheat, winter; format: in vivo
Summary of the method: as §1

[6] = system: velvetleaf (Abutilon theophrasti); assay: Test F pre-/postemergence: velvetleaf; format: in vivo; settings: Preemergence, scale 0 to 100
Summary of the method: (§2)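 Visual response scores, 0 meaning no effect and 100 complete control, were assigned against untreated controls 14 to 21 days after treatment. Test chemicals in a surfactant-containing non-phytotoxic solvent were applied preemergence to seeded silt loam soil or postemergence to 2–18 cm plants in peat-based medium.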

[7] = system: crabgrass, large (large crabgrass, Digitaria sanguinalis); assay: Test F pre-/postemergence: crabgrass, large; format: in vivo; settings: Preemergence, scale 0 to 100
Summary of the method: as §2

[8] = system: foxtail, giant (giant foxtail, Setaria faberii); assay: Test F pre-/postemergence: foxtail, giant; format: in vivo; settings: Preemergence, scale 0 to 100
Summary of the method: as §2

[9] = system: beggarticks (hairy beggarticks, Bidens pilosa); assay: Test F pre-/postemergence: beggarticks; format: in vivo; settings: Preemergence, scale 0 to 100
Summary of the method: as §2

Waterhemp = assay: Test C preemergence: waterhemp; format: in vivo, Amaranthus rudis; settings: 125 g ai/ha, scale 0 to 100, 0 no effect, 100 complete control
[10] = Postemergence, 31 g ai/ha, scale 0 to 100 (0 no effect, 100 complete control)
[11] = Postemergence, 62 g ai/ha, scale 0 to 100 (0 no effect, 100 complete control)
[12] = Postemergence, 125 g ai/ha, scale 0 to 100, 0 no effect, 100 complete control
[13] = Postemergence, 16 g ai/ha, scale 0 to 100
[14] = Preemergence, 16 g ai/ha, scale 0 to 100, 0 no effect, 100 complete control
[15] = Preemergence, 31 g ai/ha, scale 0 to 100, 0 no effect, 100 complete control
[16] = Preemergence, 62 g ai/ha, scale 0 to 100
[17] = Preemergence, 125 g ai/ha, scale 0 to 100

CCc1nn(-c2ccc(C(F)(F)F)cc2)nc1Cc1ccnc(C(F)(F)F)c1 [Compound 155]
Plant response rating: Canarygrass [1, 10]: 70 | Plant response rating: Canarygrass [1, 11]: 70 | Plant response rating: Canarygrass [1, 12]: 85 | Plant response rating, Canarygrass [1, 13]: 20 | Plant response rating, Canarygrass [1, 14]: 10 | Plant response rating, Canarygrass [1, 15]: 70 | Plant response rating, Canarygrass [1, 16]: 100 | Plant response rating, Canarygrass [1, 17]: 100 | Plant response rating: Chickweed [2, 10]: 70 | Plant response rating: Chickweed [2, 11]: 75 | Plant response rating: Chickweed [2, 12]: 100 | Plant response rating, Chickweed [2, 13]: 65 | Plant response rating, Chickweed [2, 14]: 35 | Plant response rating, Chickweed [2, 15]: 50 | Plant response rating, Chickweed [2, 16]: 100 | Plant response rating, Chickweed [2, 17]: 100 | Plant response rating: Bromegrass, Downy [3, 10]: 15 | Plant response rating: Bromegrass, Downy [3, 11]: 35 | Plant response rating: Bromegrass, Downy [3, 12]: 55 | Plant response rating, Bromegrass, Downy [3, 13]: 5 | Plant response rating, Bromegrass, Downy [3, 14]: 0 | Plant response rating, Bromegrass, Downy [3, 15]: 5 | Plant response rating, Bromegrass, Downy [3, 16]: 10 | Plant response rating, Bromegrass, Downy [3, 17]: 35 | Plant response rating: Radish, Wild [4, 10]: 95 | Plant response rating: Radish, Wild [4, 11]: 95 | Plant response rating: Radish, Wild [4, 12]: 100 | Plant response rating, Radish, Wild [4, 13]: 85 | Plant response rating, Radish, Wild [4, 14]: 100 | Plant response rating, Radish, Wild [4, 15]: 95 | Plant response rating, Radish, Wild [4, 16]: 100 | Plant response rating, Radish, Wild [4, 17]: 100 | Plant response rating: Wheat, Winter [5, 10]: 10 | Plant response rating: Wheat, Winter [5, 11]: 15 | Plant response rating: Wheat, Winter [5, 12]: 25 | Plant response rating, Wheat, Winter [5, 13]: 5 | Plant response rating, Wheat, Winter [5, 14]: 0 | Plant response rating, Wheat, Winter [5, 15]: 0 | Plant response rating, Wheat, Winter [5, 16]: 5 | Plant response rating, Wheat, Winter [5, 17]: 5 | Plant response rating, Velvetleaf ([6]; 125 g ai/ha): 98 | Plant response rating, Velvetleaf ([6]; 250 g ai/ha): 98 | Plant response rating, Crabgrass, Large ([7]; 62 g ai/ha): 100 | Plant response rating, Crabgrass, Large ([7]; 125 g ai/ha): 100 | Plant response rating, Crabgrass, Large ([7]; 250 g ai/ha): 100 | Plant response rating, Foxtail, Giant ([8]; 62 g ai/ha): 98 | Plant response rating, Foxtail, Giant ([8]; 125 g ai/ha): 100 | Plant response rating, Foxtail, Giant ([8]; 250 g ai/ha): 100 | Plant response rating, Beggarticks ([9]; 62 g ai/ha): 40 | Plant response rating, Beggarticks ([9]; 125 g ai/ha): 70 | Plant response rating, Beggarticks ([9]; 250 g ai/ha): 80 | Plant response rating, Waterhemp (Waterhemp): 100
